Data set [1] concerns the target EGFR Exon 20 INSNPH Ba/F3 (Homo sapiens, UniProt P00533, DUP771-773, cells depend on it). Kind of data set: EGFR Exon 20 INSNPH Ba/F3 CellTiter-Glo. Format: cell-based. As to conditions: CellTiter-Glo, 72 h, read-out: EGFR Exon 20 INSNPH Ba/F3 CTG IC50. In short, it runs like this: (§1)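 ATP-based luminescence (CellTiter-Glo) after 72 h compound exposure gives viability; IC50 from dose-response fit. Cells seeded 24 h ahead at 37 °C, 5% CO2. Controls: DMSO vehicle and 10 μM staurosporine; runs kept only if Z′ ≥0.5.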
Background: In ATP-based viability assays light output follows the ATP content of the culture.

The test system of another data set is H1781. Kind of data set: H1781 CellTiter-Glo. Format: cell-based. As to conditions: NCI-H1781; 72 h compound incubation; read-out: H1781 CTG IC50. Here is the method: 2. Measurement of Cellular Activity
The CellTiter-Glo Luminescent Cell Viability Assay (Promega) is a homogeneous method of determining the number of viable cells in culture. It is based on quantification of ATP, indicating the presence of metabolically active cells. Cells are seeded on day 1 at cell numbers that assure assay linearity and optimal signal intensity. After incubation for 24 h in humidified chambers at 37° C. and 5% CO2, compounds in DMSO are added at different concentrations. Cells are further incubated for 72 h at 37° C. and 5% CO2. Cells treated with the compound vehicle DMSO are used as positive controls and cells treated with 10 μM Staurosporine serve as negative controls. At day 5 the CellTiter Glo Reagent is prepared according to the instructions of the kit (Promega Inc.): Reagent is mixed 1:1 with cell culture medium. Thereon, mixture and assay plates are equilibrated at room temperature for 20 min. Equal volumes of the reagent-medium-mixture is added to the volume of culture medium present in each well. The plates are mixed at ˜200 rpm for 2 minutes on an orbital shaker. The microplates are then incubated at room temperature for 10 minutes for stabilization of the luminescent signal. Following incubation the luminescence is recorded on a Victor microplate reader (Perkin Elmer) using a 200 ms integration time. The data is then analyzed with Excel using the XLFIT Plugin (dose response Fit 205) for IC50-determination. As quality control the Z′-factor is calculated from 16 positive and negative control values. Only assay results showing a Z′-factor ≥0.5 are used for further analysis.
(§2) Inhibition is indicated as […] [nM] (“−”=not measured). Compounds having an activity designated as “A” provided an IC50≤100 nM; compounds having an activity designated as “B” provided an 100 nM<IC50≤500 nM; compounds having an activity designated as “C” provided an 500 nM<IC50≤1000 nM; compounds having an activity designated as “D” provided an 1000 nM<IC50≤100000 nM; and compounds having an activity designated as “E” provided an IC50>10000 nM.

The target in the next data set is T1, HER2 INS YVMA (Homo sapiens, UniProt P04626, INS775YVMA).
T1 construct: purchased DPF
The data set can be described thus: Lance Kinase Activity Assay, HER2 INS YVMA (Her2 Exon 20 INSYVMA Lance). Format: biochemical. The conditions noted are these: biochemical Lance assay. In a few lines:
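IC50 was fitted to sigmoidal curves of TR-FRET signal (665 and 615 nm emission after 340 nm excitation) from an Eu anti-phospho antibody binding the phosphorylated ULight peptide. The ATP-started reaction ran 1 h at RT and was then quenched with 10 mM EDTA plus antibody for a further 1 h. Compounds were tested as 8-point, 3-fold dilutions.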

In another data set the test system is A431. The data set can be described thus: A431 CellTiter-Glo. The conditions noted are these: Homo sapiens, A-431; 72 h compound incubation; read-out: A431 CTG IC50. Format: cell-based. In a few lines: (§3)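 In this viability format, compound-treated cells sit 72 h at 37° C. before ATP content is quantified by luminescence, and IC50 is taken from the fitted dose-response curve.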

Data set [2] is described as follows: Metabolic stability in mouse liver microsomes without cofactor NADPH. As to conditions: 3 μM test compound, mouse liver microsomes, without NADPH, 50 min, 37° C., LC-MS/MS. Format: in vitro ADME. In short, it runs like this:
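Cofactor-free incubation: no NADPH added to mouse liver microsomes, with compound at 3 μM and 37° C. Remaining parent was quantified by LC-MS/MS at time points up to 50 minutes to track depletion.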
On the technique in general: Liver microsomes are vesicles of endoplasmic reticulum, rich in cytochrome P450 enzymes.

Another data set has as its target EGFR T790ML858R (Homo sapiens, UniProt P00533, L858R/T790M). Kind of data set: EGFR T790ML858R Lance assay. Format: biochemical. Here is the method:
as §2

The target of data set [3] is Her2 Exon 20 INSYVMA Ba/F3 (Homo sapiens, UniProt P04626, DUP772-775, cells depend on it). The data set can be described thus: Her2 Exon 20 INSYVMA Ba/F3 CellTiter-Glo. Format: cell-based. As to conditions: CellTiter-Glo, 72 h, read-out: Her2 Exon 20 INSYVMA Ba/F3 CTG IC50. In a few lines: as §1
The next data set has as its target EGFR wt (Homo sapiens, UniProt P00533). The data set can be described thus: EGFR wt Lance assay. Format: biochemical. Here is the method: as §2
For the next data set, the system named is H1975. The data set can be described thus: H1975 CellTiter-Glo. Format: cell-based. The conditions noted are these: Homo sapiens, NCI-H1975; 72 h compound incubation; read-out: H1975 CTG IC50. In a few lines: as §3

The structures appear in SMILES notation. Where only a bound is given, the exact number is not on record here.

EGFR wt, sequence (P00533 25-1210): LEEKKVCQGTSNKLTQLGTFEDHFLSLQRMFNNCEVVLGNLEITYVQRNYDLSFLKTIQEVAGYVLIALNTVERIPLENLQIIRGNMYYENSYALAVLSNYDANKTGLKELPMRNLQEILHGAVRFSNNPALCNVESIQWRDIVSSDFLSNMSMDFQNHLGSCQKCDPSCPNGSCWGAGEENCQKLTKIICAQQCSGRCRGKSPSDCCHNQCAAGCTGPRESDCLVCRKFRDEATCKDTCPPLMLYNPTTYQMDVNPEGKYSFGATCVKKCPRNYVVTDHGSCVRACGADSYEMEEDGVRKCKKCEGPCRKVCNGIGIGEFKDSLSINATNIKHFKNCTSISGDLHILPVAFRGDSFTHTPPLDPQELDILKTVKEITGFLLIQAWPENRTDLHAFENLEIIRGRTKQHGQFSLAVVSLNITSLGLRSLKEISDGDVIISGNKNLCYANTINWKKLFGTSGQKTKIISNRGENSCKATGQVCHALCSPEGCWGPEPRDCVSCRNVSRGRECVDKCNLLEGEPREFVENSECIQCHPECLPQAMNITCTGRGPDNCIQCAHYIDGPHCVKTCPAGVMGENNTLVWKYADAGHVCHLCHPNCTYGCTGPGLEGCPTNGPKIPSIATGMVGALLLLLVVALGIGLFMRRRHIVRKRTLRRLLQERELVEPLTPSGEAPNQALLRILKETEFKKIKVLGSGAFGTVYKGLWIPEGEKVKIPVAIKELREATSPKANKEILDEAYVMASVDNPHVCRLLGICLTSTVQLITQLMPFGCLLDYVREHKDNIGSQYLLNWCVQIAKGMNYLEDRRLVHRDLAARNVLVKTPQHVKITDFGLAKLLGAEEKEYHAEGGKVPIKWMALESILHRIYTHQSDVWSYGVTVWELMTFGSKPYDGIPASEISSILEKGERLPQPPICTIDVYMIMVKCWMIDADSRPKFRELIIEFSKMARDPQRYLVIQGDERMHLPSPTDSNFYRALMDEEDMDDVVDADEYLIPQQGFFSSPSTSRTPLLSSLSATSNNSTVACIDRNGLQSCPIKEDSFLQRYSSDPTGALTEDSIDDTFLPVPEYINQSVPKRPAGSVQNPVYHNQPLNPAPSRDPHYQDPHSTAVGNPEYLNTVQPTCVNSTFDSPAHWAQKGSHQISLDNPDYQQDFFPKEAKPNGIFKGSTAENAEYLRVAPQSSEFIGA
EGFR Exon 20 INSNPH Ba/F3, sequence (P00533 with tags, fused parts or gaps DUP771-773): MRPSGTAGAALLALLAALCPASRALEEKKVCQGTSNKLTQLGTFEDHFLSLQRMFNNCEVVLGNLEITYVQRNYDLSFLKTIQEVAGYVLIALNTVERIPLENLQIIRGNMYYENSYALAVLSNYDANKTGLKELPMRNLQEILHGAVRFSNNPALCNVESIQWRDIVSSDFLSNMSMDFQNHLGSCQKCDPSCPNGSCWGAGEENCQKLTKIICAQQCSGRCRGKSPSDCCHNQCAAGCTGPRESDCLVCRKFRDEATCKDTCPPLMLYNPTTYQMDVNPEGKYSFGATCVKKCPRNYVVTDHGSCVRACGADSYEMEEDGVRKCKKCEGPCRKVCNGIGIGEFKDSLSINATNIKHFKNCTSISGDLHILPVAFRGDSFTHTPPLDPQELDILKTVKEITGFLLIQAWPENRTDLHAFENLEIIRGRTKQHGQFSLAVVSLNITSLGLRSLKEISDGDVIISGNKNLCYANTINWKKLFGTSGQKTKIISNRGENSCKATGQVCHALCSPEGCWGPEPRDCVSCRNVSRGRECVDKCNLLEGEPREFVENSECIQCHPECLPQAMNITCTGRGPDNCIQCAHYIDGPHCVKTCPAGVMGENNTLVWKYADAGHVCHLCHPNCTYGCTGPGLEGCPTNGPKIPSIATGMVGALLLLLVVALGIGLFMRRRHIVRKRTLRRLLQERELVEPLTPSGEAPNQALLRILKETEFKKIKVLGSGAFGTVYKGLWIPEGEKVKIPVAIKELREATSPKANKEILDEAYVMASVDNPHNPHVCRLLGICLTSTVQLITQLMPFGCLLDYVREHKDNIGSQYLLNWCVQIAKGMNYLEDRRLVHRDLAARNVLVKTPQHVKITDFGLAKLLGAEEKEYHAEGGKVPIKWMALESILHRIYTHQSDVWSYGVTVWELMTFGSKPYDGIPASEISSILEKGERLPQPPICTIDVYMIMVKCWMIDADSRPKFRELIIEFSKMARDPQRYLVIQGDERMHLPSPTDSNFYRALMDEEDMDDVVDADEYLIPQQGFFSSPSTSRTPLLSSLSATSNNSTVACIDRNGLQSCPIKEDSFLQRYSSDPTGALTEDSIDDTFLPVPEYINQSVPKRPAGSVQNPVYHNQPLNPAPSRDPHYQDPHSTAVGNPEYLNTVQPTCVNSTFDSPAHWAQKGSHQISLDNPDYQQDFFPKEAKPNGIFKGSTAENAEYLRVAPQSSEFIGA
EGFR T790ML858R, sequence (P00533 25-1210 T790M/L858R): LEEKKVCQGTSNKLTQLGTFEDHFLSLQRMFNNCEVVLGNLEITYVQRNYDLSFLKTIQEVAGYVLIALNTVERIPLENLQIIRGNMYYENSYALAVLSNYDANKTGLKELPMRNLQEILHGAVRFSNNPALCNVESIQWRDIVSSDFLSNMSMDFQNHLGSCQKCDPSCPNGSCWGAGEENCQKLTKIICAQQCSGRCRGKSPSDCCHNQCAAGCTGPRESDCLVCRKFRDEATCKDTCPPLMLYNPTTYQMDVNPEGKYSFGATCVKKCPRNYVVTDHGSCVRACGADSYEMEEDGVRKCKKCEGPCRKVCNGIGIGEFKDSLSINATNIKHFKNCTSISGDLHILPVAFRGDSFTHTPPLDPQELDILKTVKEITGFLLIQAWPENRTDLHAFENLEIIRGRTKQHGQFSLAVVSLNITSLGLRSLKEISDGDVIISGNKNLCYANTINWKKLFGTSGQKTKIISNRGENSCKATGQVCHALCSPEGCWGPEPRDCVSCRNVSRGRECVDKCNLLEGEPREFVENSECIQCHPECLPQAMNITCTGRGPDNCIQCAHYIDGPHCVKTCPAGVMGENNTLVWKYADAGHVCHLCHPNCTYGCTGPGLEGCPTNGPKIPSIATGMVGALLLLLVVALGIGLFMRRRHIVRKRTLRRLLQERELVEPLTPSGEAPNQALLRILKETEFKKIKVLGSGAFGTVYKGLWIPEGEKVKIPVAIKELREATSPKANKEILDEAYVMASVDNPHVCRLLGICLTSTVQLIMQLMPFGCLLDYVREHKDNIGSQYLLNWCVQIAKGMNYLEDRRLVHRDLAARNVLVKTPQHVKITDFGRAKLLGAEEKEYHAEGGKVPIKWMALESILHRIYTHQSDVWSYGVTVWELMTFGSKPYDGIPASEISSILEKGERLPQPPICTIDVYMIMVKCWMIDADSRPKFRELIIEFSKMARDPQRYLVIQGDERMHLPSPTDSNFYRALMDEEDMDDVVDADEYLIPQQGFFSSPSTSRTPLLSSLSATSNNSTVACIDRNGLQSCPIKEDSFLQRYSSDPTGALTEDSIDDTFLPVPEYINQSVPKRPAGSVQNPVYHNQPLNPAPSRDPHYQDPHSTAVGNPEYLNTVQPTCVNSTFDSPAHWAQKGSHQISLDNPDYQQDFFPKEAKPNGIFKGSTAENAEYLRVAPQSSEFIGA
Her2 Exon 20 INSYVMA Ba/F3, sequence (P04626 with tags, fused parts or gaps DUP772-775): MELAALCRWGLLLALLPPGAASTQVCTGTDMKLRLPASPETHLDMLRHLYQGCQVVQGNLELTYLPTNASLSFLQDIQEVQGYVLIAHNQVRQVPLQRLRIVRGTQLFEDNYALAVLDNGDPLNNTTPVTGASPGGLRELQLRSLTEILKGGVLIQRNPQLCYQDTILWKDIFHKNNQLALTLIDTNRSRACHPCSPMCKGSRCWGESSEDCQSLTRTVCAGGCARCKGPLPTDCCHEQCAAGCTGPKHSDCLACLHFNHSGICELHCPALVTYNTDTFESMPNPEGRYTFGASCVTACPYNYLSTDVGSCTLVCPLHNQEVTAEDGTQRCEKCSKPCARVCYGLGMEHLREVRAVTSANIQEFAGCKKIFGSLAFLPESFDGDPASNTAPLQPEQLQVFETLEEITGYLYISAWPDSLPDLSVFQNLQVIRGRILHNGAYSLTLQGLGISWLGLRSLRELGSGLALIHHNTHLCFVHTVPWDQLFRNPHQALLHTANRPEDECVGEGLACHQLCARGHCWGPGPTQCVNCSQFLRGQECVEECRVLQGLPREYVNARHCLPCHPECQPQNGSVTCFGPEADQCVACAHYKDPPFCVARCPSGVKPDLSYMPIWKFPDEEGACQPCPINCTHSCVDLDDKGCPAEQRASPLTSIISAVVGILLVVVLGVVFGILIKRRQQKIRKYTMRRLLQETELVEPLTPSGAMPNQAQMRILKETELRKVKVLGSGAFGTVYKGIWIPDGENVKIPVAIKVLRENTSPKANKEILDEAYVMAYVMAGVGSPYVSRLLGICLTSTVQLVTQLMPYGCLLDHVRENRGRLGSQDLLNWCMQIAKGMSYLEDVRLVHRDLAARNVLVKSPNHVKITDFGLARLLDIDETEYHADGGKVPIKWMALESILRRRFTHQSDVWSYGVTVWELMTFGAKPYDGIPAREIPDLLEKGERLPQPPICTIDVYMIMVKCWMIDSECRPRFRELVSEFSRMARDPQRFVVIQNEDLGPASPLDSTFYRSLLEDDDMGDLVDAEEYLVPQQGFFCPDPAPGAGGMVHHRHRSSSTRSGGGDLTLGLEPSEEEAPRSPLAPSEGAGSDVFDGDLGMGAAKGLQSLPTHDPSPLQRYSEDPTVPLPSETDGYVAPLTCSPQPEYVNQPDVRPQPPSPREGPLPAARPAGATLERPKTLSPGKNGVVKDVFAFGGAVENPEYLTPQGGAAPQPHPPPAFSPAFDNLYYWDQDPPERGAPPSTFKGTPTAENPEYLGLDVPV

Broadly, the IC50 is the concentration that inhibits the measured activity by half. Take `C=CC(=O)Nc1cc(-c2c(-c3ccc(CN4CCN(C)CC4)cc3)[nH]c3nccc(Cl)c23)ccc1C` [Example 1, N-(5-(4-chloro-2-(4-((4-methylpiperazin-1-yl)methyl)phenyl)-1H-pyrrolo[2,3-b]pyridin-3-yl)-2-methylphenyl)acrylamide 2,2,2-trifluoroacetate]: the GI50 was at most 100 nM in data set [1] and 100 to 500 nM in data set [3]. In addition, the IC50 in the data set on H1781 is 100 to 500 nM; against HER2 INS YVMA it was at most 100 nM; with A431, 100 to 500 nM; against EGFR T790ML858R it was at most 100 nM; against EGFR wt, at most 100 nM; in the data set on H1975 it was at most 100 nM. Besides, the “Stability in presence of mouse liver microsomes without cofactor NADPH [% remaining after 50 min]” value in data set [2] is given as over 99 % remaining after 50 min.

As to `C=CC(=O)Nc1cc(-c2c(-c3ccc(N4CCN(C)CC4)cc3)[nH]c3nccc(Cl)c23)ccc1C` [Example 2, N-(5-(4-chloro-2-(4-(4-methylpiperazin-1-yl)phenyl)-1H-pyrrolo[2,3-b]pyridin-3-yl)-2-methylphenyl)acrylamide], the GI50 in [1] and in data set [3] was at most 100 nM throughout. For the same compound, the concentration for half-maximal inhibition (IC50) is 100 to 500 nM with H1781; at most 100 nM against HER2 INS YVMA; 100 to 500 nM with A431; at most 100 nM at EGFR T790ML858R; at most 100 nM against EGFR wt; at most 100 nM with H1975. The “Stability in presence of mouse liver microsomes without cofactor NADPH [% remaining after 50 min]” value in data set [2] is over 99 % remaining after 50 min.

Regarding `C=CC(=O)Nc1cc(-c2c(-c3cccc(C(=O)NC4CCN(Cc5ccccc5)CC4)c3)[nH]c3nccc(Cl)c23)ccc1C` [Example 48, 3-(3-(3-acrylamido-4-methylphenyl)-4-chloro-1H-pyrrolo[2,3-b]pyridin-2-yl)-N-(1-benzylpiperidin-4-yl)benzamide], the GI50 in [1] and in [3] was 100 to 500 nM each time. The IC50 in the data set with H1781 is 100 to 500 nM; against HER2 INS YVMA, at most 100 nM; with A431, 100 to 500 nM; against EGFR T790ML858R, at most 100 nM; against EGFR wt, at most 100 nM; with H1975 it was at most 100 nM.

Consider `C=CC(=O)Nc1cc(-c2c(-c3cccc(OCCN4CCCC4)c3)[nH]c3ncc(C(=O)OC(C)C)cc23)ccc1C` [Example 170, isopropyl 3-(3-acrylamido-4-methylphenyl)-2-(3-(2-(pyrrolidin-1-yl)ethoxy)phenyl)-1H-pyrrolo[2,3-b]pyridine-5-carboxylate], for which the GI50 in data set [1] and in [3] was 100 to 500 nM throughout. The IC50 was at most 100 nM against HER2 INS YVMA; 1000 to 100000 nM with A431; at most 100 nM on EGFR T790ML858R; at most 100 nM against EGFR wt; 100 to 500 nM with H1975. In addition, the “Stability in presence of mouse liver microsomes without cofactor NADPH [% remaining after 50 min]” value in data set [2] was over 99 % remaining after 50 min.

For the compound `C=CC(=O)Nc1cc(-c2c(-c3ccc(N(C)CCN(C)C)cc3)[nH]c3ncc(C(=O)OC(C)C)cc23)cc(F)c1C` [Example 172, isopropyl 3-(3-acrylamido-5-fluoro-4-methylphenyl)-2-(4-((2-(dimethylamino)ethyl)(methyl)amino)phenyl)-1H-pyrrolo[2,3-b]pyridine-5-carboxylate], the GI50 in data set [1] and in [3] was 100 to 500 nM throughout. The IC50 was at most 100 nM against HER2 INS YVMA; 1000 to 100000 nM in the data set on A431; at most 100 nM at EGFR T790ML858R; at most 100 nM at EGFR wt; 100 to 500 nM in the data set with H1975. In addition, the “Stability in presence of mouse liver microsomes without cofactor NADPH [% remaining after 50 min]” value in [2] is given as over 99 % remaining after 50 min.

For `C=CC(=O)Nc1cc(-c2c(-c3ccc(N4CCN(C(C)C)CC4)cc3)[nH]c3ncc(C(=O)OC(C)C)cc23)ccc1C` [Example 176, isopropyl 3-(3-acrylamido-4-methylphenyl)-2-(4-(4-isopropylpiperazin-1-yl)phenyl)-1H-pyrrolo[2,3-b]pyridine-5-carboxylate], the GI50 in data set [1] and in data set [3] was 100 to 500 nM each time. The half-inhibitory concentration (IC50) at HER2 INS YVMA was at most 100 nM; with A431, 1000 to 100000 nM; against EGFR T790ML858R, at most 100 nM; against EGFR wt, at most 100 nM; in the data set on H1975, 100 to 500 nM. For the same compound, in data set [2], the “Stability in presence of mouse liver microsomes without cofactor NADPH [% remaining after 50 min]” value is recorded as over 99 % remaining after 50 min.

`C=CC(=O)Nc1cc(-c2c(-c3ccc(CN(C)C)cc3)[nH]c3ncc(C(=O)OC(C)C)cc23)cc(F)c1C` [Example 177, isopropyl 3-(3-acrylamido-5-fluoro-4-methylphenyl)-2-(4-((dimethylamino)methyl)phenyl)-1H-pyrrolo[2,3-b]pyridine-5-carboxylate]: the GI50 in [1] and in data set [3] was 100 to 500 nM throughout. Besides, the IC50 against HER2 INS YVMA was at most 100 nM; with A431, 1000 to 100000 nM; on EGFR T790ML858R, at most 100 nM; at EGFR wt, at most 100 nM; in the data set with H1975, 100 to 500 nM. Further, the “Stability in presence of mouse liver microsomes without cofactor NADPH [% remaining after 50 min]” value in data set [2] is given as over 99 % remaining after 50 min.

On to `C=CC(=O)Nc1cc(-c2c(-c3ccc(C4CCN(C)CC4)cc3)[nH]c3ncc(C(=O)OC(C)C)cc23)cc(F)c1C` [Example 179, isopropyl 3-(3-acrylamido-5-fluoro-4-methylphenyl)-2-(4-(1-methylpiperidin-4-yl)phenyl)-1H-pyrrolo[2,3-b]pyridine-5-carboxylate], for which the GI50 in data set [1] and in [3] was 100 to 500 nM throughout. Moreover, the IC50 against HER2 INS YVMA is at most 100 nM; in the data set with A431, 1000 to 100000 nM; against EGFR T790ML858R it was at most 100 nM; on EGFR wt, at most 100 nM; in the data set on H1975, 100 to 500 nM. Besides, in data set [2], the “Stability in presence of mouse liver microsomes without cofactor NADPH [% remaining after 50 min]” value is on record as over 99 % remaining after 50 min.

For `C=CC(=O)Nc1cc(-c2c(-c3ccc(OCCN(C)C)cc3)[nH]c3ncc(C(=O)OC(C)C)cc23)cc(F)c1C` [Example 182, isopropyl 3-(3-acrylamido-5-fluoro-4-methylphenyl)-2-(4-(2-(dimethylamino)ethoxy)phenyl)-1H-pyrrolo[2,3-b]pyridine-5-carboxylate], the GI50 in data set [1] and in [3] was 100 to 500 nM throughout. The half-inhibitory concentration (IC50) was at most 100 nM against HER2 INS YVMA; 1000 to 100000 nM in the data set on A431; at most 100 nM at EGFR T790ML858R; at most 100 nM at EGFR wt; 100 to 500 nM in the data set with H1975. In data set [2], the “Stability in presence of mouse liver microsomes without cofactor NADPH [% remaining after 50 min]” value is listed as over 99 % remaining after 50 min.

Take `C=CC(=O)Nc1cc(-c2c(-c3cccc(CN(C)C)c3)[nH]c3ncc(C(=O)OC(C)C)cc23)ccc1C` [Example 187, isopropyl 3-(3-acrylamido-4-methylphenyl)-2-(3-((dimethylamino)methyl)phenyl)-1H-pyrrolo[2,3-b]pyridine-5-carboxylate]: the GI50 in data set [1] and in data set [3] was 100 to 500 nM throughout. Also, the IC50 against HER2 INS YVMA is at most 100 nM; in the data set with A431, 1000 to 100000 nM; at EGFR T790ML858R, at most 100 nM; against EGFR wt, at most 100 nM; with H1975, 100 to 500 nM. Moreover, in data set [2], the “Stability in presence of mouse liver microsomes without cofactor NADPH [% remaining after 50 min]” value is recorded as over 99 % remaining after 50 min.

Values taken from patent US20220370440A1 (Lead Discovery Center GmbH, priority 2018, published 2022).
